According to patent US20180110978A1, “SYNERGISTIC REGULATED CELL DEATH INDUCTION WITH HSP90 INHIBITORS AND NANOSECOND PULSED ELECTRIC FIELDS” (Old Dominion University Research Foundation, priority 2015, published 2018):

How the values were obtained:
[1] = system: N1-S1 rat HCC cells; assay: Cell viability of N1-S1 rat HCC cells (CellTiter-Glo) after Hsp90 inhibitor and/or nsPEF; type: cell-based
Protocol: In some embodiments, N1-S1 rat HCC cells are exposed to an inhibitor of Hsp90 and then exposed to nsPEFs to cause cell death. In these embodiments, using the aforementioned methodology the cells mortality is greater than when either Hsp90 inhibitor or nsPEFs are employed alone. In an example, N1-S1 rat HCC cells are treated with 0.3 μM 17-AAG and incubated for 24 hours. In this example, after the 24 hours incubation period, the N1-S1 rat HCC cells are treated with a single 600 ns pulse with increasing electric field intensities (from about 10 kV/cm to about 60 kV/cm). Further to this example, cell viability is determined employing CellTiter-Glo (available from Promega, Madison, Wis.) 24 hours after pulsing.
In an example, mitochondria membrane potential (ΔΨm) and Ca^2+ influx are determined by employing Tetramethylrhodamine, ethyl ester (TMRE) Assay Kit and green-fluorescent calcium indicator, Fluo-4, respectively, 10 minutes after pulsing. In this example, cell viability is determined employing CellTiter-Glo (available from Promega, Madison, Wis.) 24 hours after pulsing.
In some embodiments, bar 502 illustrates the percentage of cell viability for a control sample where none of the treatments are employed. In these embodiments, bar 504 illustrates the percentage of cell viability when employing an Hsp90 inhibitor at a concentration of 0.3 μM (e.g., 17-AAG) without nsPEFs. Further to these embodiments, bar 506 illustrates the percentage of cell viability when employing only a single 600 nsPEF of 60 kV/cm. Still further to these embodiments, bar 508 illustrates the percentage of cell viability when employing both treatments (0.3 μM 17-AAG and single 600 ns pulse of 60 kV/cm). In an example, N1-S1 HCC cells are employed for the cell viability test.

[2] = system: caspase 3/7 catalytic activity in N1-S1 cells; assay: Caspase 3/7 catalytic activity in N1-S1 cells (Caspase-Glo); type: cell-based, rat
Protocol: In some embodiments, bar graph 402 represents the percentage change in caspase 3/7 catalytic activity after four (4) hours of incubation with 0.3 μM 17-AAG followed by the application of a single 600 ns pulse at different electric field intensities (from 0 to about 60 kV/cm). In these embodiments, bar graph 432 represents the percentage change in […] after 16 hours of incubation with 0.3 μM 17-AAG followed by the application of a single 600 ns pulse at different electric field intensities (from 0 to about 60 kV/cm).
In some embodiments, N1-S1 cells were incubated with or without 17-AAG for 4 hours or 16 hours to determine a synergistic activation of caspase 3/7 with 17-AAG and nsPEFs. In these embodiments, after the incubation period, N1-S1 cells were then treated with nsPEFs with increasing electric fields (one 600 ns pulse) and assayed for caspase 3/7 catalytic activity two (2) hours after pulsing. In an example, caspase 3/7 catalytic activity is measured employing Caspase-Glo (available from Promega, Madison, Wis.) 2 hours after pulsing.

[3] = system: cleaved caspase 3; assay: Western blot for cleaved caspase 3 relative to β-actin (LI-COR Odyssey CLx); type: cell-based
Description: FIG. 7 is a graphical representation illustrating western blot test results for cleaved caspase 3 when employing an Hsp90 inhibitor at different concentrations, according to an embodiment. In FIG. 7, western blot test results 700 include stained bands 702 and cleaved caspase 3 fold change graph 708. In FIG. 7, stained bands 702 include cleaved caspase 3 bands 704 and β-actin bands 706. In FIG. 7, cleaved caspase 3 fold change graph 708 includes bars 710, 712, and 714. In an example, the western blot data is quantified using a LI-COR Odyssey CLx imaging system. In FIG. 7, stained bands 702 is a photographic representation depicting an expression of cleaved caspase 3 as a function of concentration of an Hsp90 inhibitor (e.g., AUY922). In FIG. 7, cleaved caspase 3 fold change graph 708 is a graphical representation illustrating fold changes of caspase 3 with respect to β-actin. FIG. 8 is a graphical representation illustrating western blot test results for cleaved caspase 3 when employing an Hsp90 inhibitor alone, nsPEF alone, or a combination of both treatments, according to an embodiment. In FIG. 8, western blot test results 800 include stained bands 802 and caspase 3 fold change graph 808. In FIG. 8, stained bands 802 include cleaved caspase 3 bands 804, β-actin bands 806, and caspase expression 807. In FIG. 8, caspase 3-fold change graph 808 includes bars 810, 812, and 814. In an example, the western blot data is quantified using LI-COR Odyssey CLx imaging system. In some embodiments, stained bands 802 is a photographic representation depicting an expression of cleaved caspase 3 as a function of the treatment employed. In these embodiments, caspase 3 fold change graph 808 is a graphical representation illustrating fold changes of caspase 3 with respect to β-actin.

## C=CCNC1=C2C[C@@H](C)C[C@H](OC)[C@H](O)[C@@H](C)/C=C(\C)[C@H](OC(N)=O)[C@@H](OC)/C=C\C=C(/C)C(=O)NC(=CC1=O)C2=O [17-AAG]
[1]; 0.3 μM 17-AAG alone, 24 h incubation, no nsPEF (bar 116, FIG. 1), viability 24 h after pulsing time
  cell viability reduction: about 25%
[1]; 0.3 μM 17-AAG plus nsPEF at about 50 kV/cm (bar 610, FIG. 6)
  additional increase in the reduction of cell viability: about 45%
[1]; 0.3 μM 17-AAG plus single 600 ns pulse of 60 kV (bar 508, FIG. 5)
  percentage of cell viability: about 17%
[1]; cells pre-treated with 0.3 μM 17-AAG, then single 600 ns pulse of 50 kV/cm
  cells killed: 80%
[2]; 0.3 μM 17-AAG 4 h, then 600 ns pulse at higher electric fields 50-60 kV/cm (bars 428, 430)
  effect of 17-AAG on the nsPEF-induced modest change in catalytic activity: no effect
[2]; 0.3 μM 17-AAG 4 h, then 600 ns pulse at lower electric fields 10-40 kV/cm (bars 420-426)
  effect of 17-AAG on the nsPEF-induced modest change in caspase activity: no effect
[2]; 0.3 μM 17-AAG alone, 4 hours of incubation (bar 418, FIG. 4)
  change in caspase 3/7 activity: no significant change
[2]; 0.3 μM 17-AAG, 16 h of incubation, unaffected by nsPEFs (FIG. 4)
  change in caspase 3/7 activity: significant increases
[2]; the two treatments included together
  synergistic effects on caspase 3/7 activity of 17-AAG together with nsPEFs: no synergistic effects

## CCNC(=O)c1noc(-c2cc(C(C)C)c(O)cc2O)c1-c1ccc(CN2CCOCC2)cc1 [AUY922]
[3]; 1 μM AUY922, no nsPEF (bar 712, FIG. 7), no AUY922 about 1
  ratio of caspase 3 to β-actin (fold change): about 2
[3]; 1 μM AUY922 alone (bar 814, FIG. 8)
  ratio of caspase 3 to β-actin (fold change): ~3
[3]; 1 μM AUY922 plus nsPEF of 600 ns at 20 kV/cm (bar 812, FIG. 8)
  ratio of caspase 3 to β-actin (fold change): about 7
[3]; 10 μM AUY922, no nsPEF (bar 714, FIG. 7), no AUY922 about 1
  ratio of caspase 3 to β-actin (fold change): about 7
